Results on eleven molecules are retold here after US20250214991A1 (Oncopia Therapeutics, Inc. d/b/a/ SK Life Science Labs, priority 2022, published 2025).

The target in assay [1] is CRBN/DDB1 (Homo sapiens (Human), UniProt Q96SW2). Briefly: IC50 measurements for binding to CRBN/DDB1 (HTRF). To be noted: His tagged CRBN+DDB, Cy5-labeled Thalidomide probe, one hour. In a few lines: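 HTRF competition binding with 2 nM His-tagged CRBN-DDB1 complex, 60 nM Cy5-thalidomide probe and 0.4 nM anti-His Tb cryptate in 50 mM HEPES pH 7.5, 1 mM TCEP, 0.01% Brij-35, 50 mM NaCl, 0.1% BSA. Read after 1 h at room temperature; IC50 from four-parameter dose-response fit.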
Chain of CRBN/DDB1 (Q96SW2 whole entry, species assumed): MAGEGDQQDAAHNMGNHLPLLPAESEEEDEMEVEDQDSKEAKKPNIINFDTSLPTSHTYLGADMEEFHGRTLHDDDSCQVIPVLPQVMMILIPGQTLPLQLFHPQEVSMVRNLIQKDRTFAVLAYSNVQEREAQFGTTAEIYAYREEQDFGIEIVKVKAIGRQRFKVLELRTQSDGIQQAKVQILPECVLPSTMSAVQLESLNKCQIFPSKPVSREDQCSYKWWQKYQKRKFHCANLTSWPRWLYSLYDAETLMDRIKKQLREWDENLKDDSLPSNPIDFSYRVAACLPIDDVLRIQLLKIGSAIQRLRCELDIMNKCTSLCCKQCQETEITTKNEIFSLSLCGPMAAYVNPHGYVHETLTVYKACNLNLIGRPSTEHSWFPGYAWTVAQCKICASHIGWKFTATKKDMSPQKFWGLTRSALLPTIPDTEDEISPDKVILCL
Chain of CRBN/DDB1 (Q16531 whole entry partner, species assumed): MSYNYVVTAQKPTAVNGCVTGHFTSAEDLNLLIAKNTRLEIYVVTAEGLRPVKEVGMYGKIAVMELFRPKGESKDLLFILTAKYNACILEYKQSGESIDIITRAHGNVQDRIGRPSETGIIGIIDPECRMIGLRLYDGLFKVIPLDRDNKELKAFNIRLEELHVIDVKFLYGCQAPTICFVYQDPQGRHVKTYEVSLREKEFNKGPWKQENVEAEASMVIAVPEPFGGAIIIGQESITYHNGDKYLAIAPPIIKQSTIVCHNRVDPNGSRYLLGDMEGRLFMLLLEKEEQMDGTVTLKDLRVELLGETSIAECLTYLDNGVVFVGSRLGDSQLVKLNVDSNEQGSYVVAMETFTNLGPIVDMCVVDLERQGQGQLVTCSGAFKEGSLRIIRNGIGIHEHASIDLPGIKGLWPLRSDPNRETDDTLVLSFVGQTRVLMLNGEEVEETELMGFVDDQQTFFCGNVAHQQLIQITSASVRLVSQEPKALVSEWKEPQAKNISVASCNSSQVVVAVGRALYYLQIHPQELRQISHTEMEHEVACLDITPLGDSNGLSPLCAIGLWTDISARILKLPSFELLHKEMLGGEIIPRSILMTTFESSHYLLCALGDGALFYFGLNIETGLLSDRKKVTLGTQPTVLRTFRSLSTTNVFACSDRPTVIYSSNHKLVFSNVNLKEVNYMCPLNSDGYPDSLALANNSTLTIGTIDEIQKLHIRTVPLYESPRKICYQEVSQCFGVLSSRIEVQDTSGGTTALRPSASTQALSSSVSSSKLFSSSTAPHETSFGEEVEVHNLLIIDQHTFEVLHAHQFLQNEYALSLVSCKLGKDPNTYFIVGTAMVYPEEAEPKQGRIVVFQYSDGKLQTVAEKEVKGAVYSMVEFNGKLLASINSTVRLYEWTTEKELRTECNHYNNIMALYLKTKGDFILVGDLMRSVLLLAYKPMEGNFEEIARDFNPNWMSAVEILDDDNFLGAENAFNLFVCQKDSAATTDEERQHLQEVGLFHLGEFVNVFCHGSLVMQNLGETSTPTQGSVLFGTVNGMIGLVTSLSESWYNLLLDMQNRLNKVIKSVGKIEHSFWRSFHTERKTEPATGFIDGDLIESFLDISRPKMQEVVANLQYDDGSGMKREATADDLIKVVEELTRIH

Assay [2] deals with IKZF2 (Homo sapiens (Human), UniProt Q96SW2+Q9UKS7). Briefly: In vitro IKZF2 Western Blot Assay in Jurkat cells. The class given is cell-based. Conditions: 24 hrs; for inhibition at 0.001 µM: read-out: IKZF2 degradation (%) @ μM 0.001; for inhibition at 0.01 µM: read-out: IKZF2 degradation (%) @ μM 0.01; for inhibition at 0.1 µM: read-out: IKZF2 degradation (%) @ μM 0.1; for inhibition at 1 µM: read-out: IKZF2 degradation (%) @ μM 1; for inhibition at 10 µM: read-out: IKZF2 degradation (%) @ μM 10. As for the experimental part:
In vitro IKZF2 Western Blot Assay Jurkat cells (ATCC, Cat #HB-8065) were cultured in RPMI1640+10% FBS+1% P/S. Cells were treated at desired compound concentrations (0.001, 0.01, 0.1, 1, and 10 μM) and DMSO as vehicle control for 24 hrs. After 24 hr of treatment cells were collected by centrifugation and lysed in RIPA lysis buffer on ice for 10 min. After assessing protein concentration by BCA assay (Pierce), equal amounts of protein for each sample were loaded into 4-12% Bis-Tris gels (Invitrogen), transferred to PVDF membranes and immunoblotted with antibodies against IKZF2 and Actin (Cell Signaling). Membranes were developed on an Odyssey detection system (LI-COR Biosciences) after incubation with IRDye800-labeled goat anti-rabbit IgG and IRDye680-labeled goat anti-mouse IgG (LI-COR) secondary antibodies. Band intensities were quantified using ImageStudio software. Data was further analyzed using XLfit. Percentage of IKZF2 protein degradation: A (>50%); B (30-50%); C(<30%) (Table 2).

Chain of IKZF2 (Q9UKS7 whole entry): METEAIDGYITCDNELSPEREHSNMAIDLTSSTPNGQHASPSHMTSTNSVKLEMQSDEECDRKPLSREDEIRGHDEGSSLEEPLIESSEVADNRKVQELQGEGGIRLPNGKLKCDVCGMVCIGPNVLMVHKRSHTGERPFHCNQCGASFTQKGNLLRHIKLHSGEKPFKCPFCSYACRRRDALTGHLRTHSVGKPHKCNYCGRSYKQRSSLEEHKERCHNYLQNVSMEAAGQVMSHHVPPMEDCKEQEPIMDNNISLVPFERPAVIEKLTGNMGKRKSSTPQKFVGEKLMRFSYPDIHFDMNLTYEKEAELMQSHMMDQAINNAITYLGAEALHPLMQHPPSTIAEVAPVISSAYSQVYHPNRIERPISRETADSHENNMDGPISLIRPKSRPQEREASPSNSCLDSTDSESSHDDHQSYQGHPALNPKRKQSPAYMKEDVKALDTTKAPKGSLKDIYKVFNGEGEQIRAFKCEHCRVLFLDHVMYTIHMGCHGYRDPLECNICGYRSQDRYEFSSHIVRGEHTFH
Chain of IKZF2 (Q96SW2 whole entry): as the sequence (Q96SW2 whole entry, species assumed) above
Chain of IKZF2 (Q16531 2-1140 partner): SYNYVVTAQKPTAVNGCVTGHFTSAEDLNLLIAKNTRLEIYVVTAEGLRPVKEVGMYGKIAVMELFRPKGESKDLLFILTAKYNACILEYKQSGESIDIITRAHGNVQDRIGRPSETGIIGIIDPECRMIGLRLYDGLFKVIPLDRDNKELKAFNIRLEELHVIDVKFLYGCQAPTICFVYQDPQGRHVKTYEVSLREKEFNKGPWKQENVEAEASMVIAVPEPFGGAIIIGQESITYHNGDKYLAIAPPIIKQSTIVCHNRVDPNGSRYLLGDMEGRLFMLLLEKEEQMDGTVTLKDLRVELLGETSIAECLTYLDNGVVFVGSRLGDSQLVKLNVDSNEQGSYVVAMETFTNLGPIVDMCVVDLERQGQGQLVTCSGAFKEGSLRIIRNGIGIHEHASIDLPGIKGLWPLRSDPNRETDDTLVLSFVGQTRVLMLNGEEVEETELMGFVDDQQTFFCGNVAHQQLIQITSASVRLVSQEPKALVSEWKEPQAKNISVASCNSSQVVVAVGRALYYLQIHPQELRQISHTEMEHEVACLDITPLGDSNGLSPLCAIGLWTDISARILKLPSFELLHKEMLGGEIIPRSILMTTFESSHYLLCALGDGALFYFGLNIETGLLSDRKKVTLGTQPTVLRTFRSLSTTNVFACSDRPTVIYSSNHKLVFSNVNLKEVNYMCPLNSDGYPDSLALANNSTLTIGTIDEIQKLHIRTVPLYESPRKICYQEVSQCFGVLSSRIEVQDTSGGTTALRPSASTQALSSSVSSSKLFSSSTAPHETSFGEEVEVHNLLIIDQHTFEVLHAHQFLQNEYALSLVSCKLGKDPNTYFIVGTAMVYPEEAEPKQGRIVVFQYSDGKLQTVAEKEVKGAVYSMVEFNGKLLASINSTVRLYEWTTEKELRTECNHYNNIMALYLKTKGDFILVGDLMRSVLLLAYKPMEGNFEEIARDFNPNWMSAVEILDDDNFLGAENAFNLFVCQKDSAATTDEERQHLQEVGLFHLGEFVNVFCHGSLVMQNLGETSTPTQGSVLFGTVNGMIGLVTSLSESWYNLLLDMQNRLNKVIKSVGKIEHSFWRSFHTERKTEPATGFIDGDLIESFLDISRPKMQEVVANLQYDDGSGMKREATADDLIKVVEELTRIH

Turning to `CC(C)(NCc1cc(-c2ccc3c(c2)CN(C2CCC(=O)NC2=O)C3=O)c2nccn2c1)c1ccccc1` (stereo not drawn) [Example 46, 3-(1-oxo-5-(6-(((2-phenylpropan-2-yl)amino)methyl)imidazo[1,2-a]pyridin-8-yl)isoindolin-2-yl) piperidine-2,6-dione], the IC50 in assay [1] was in the range of 100 to 500 nM. In assay [2], the inhibition at 0.001 µM is < 30%, the inhibition at 0.01 µM is < 30%, the inhibition at 0.1 µM lay within 30 to 50% and the inhibition at 1 µM is > 50%. Further, in assay [2], the inhibition at 10 µM was > 50%.

`O=C1CCC(N2Cc3cc(-c4cc(CNCCc5ccc(Cl)cc5Cl)cn5ccnc45)ccc3C2=O)C(=O)N1` (stereo not drawn) [Example 40, 3-(5-(6-(((2,4-dichlorophenethyl)amino)methyl)imidazo[1,2-a]pyridin-8-yl)-1-oxoisoindolin-2-yl) piperidine-2,6-dione]: the IC50 in assay [1] was 100 to 500 nM. Also, in assay [2], the inhibition at 0.001 µM is < 30%, the inhibition at 0.01 µM was < 30%, the inhibition at 0.1 µM is < 30% and the inhibition at 1 µM is < 30%. The inhibition at 10 µM in assay [2] lay in the range of 30 to 50%.

For the molecule `O=C1CCC(N2Cc3cc(-c4cc(CN5CC(c6ccccc6)C5)cn5ccnc45)ccc3C2=O)C(=O)N1` (stereo not drawn) [Example 48, 3-(1-oxo-5-(6-((3-phenylazetidin-1-yl)methyl)imidazo[1,2-a]pyridin-8-yl)isoindolin-2-yl) piperidine-2,6-dione], the IC50 in assay [1] is < 100 nM. For the same molecule, in assay [2], the inhibition at 0.001 µM was < 30%, the inhibition at 0.01 µM is < 30%, the inhibition at 0.1 µM is < 30% and the inhibition at 1 µM is < 30%. In addition, the inhibition at 10 µM in assay [2] was < 30%.

Turning to `O=C1CCC(N2Cc3cc(-c4cc(CN5CCC(C(F)(F)F)CC5)cn5ccnc45)ccc3C2=O)C(=O)N1` (stereo not drawn) [Example 37, 3-(1-oxo-5-(6-((4-(trifluoromethyl)piperidin-1-yl)methyl)imidazo[1,2-a]pyridin-8-yl)isoindolin-2-yl) piperidine-2,6-dione], in assay [1], the IC50 was < 100 nM. In addition, in assay [2], the inhibition at 0.001 µM is < 30%, the inhibition at 0.01 µM is < 30%, the inhibition at 0.1 µM is < 30% and the inhibition at 1 µM was < 30%. Further, the inhibition at 10 µM in assay [2] is < 30%.

Molecule `O=C1CCC(N2Cc3cc(-c4cc(CN5CCC(F)(F)CC5)cn5ccnc45)ccc3C2=O)C(=O)N1` (stereo not drawn) [Example 35, 3-(5-(6-((4,4-difluoropiperidin-1-yl)methyl)imidazo[1,2-a]pyridin-8-yl)-1-oxoisoindolin-2-yl) piperidine-2,6-dione] came in with an IC50 in assay [1] of 100 to 500 nM. Further, in assay [2], the inhibition at 0.001 µM was < 30%, the inhibition at 0.01 µM is < 30%, the inhibition at 0.1 µM is < 30% and the inhibition at 1 µM is < 30%. For the same molecule, the inhibition at 10 µM in assay [2] was < 30%.

`O=C1CCC(N2Cc3cc(-c4cc(CN5CCCC5c5ccccc5)cn5ccnc45)ccc3C2=O)C(=O)N1` (stereo not drawn) [Example 49, 3-(1-oxo-5-(6-((2-phenylpyrrolidin-1-yl)methyl)imidazo[1,2-a]pyridin-8-yl)isoindolin-2-yl) piperidine-2,6-dione] registered an IC50 in assay [1] of 100 to 500 nM. In assay [2], the inhibition at 0.001 µM is < 30%, the inhibition at 0.01 µM is < 30%, the inhibition at 0.1 µM was < 30% and the inhibition at 1 µM was < 30%. Also, in assay [2], the inhibition at 10 µM was < 30%.

Regarding `O=C1CCC(N2Cc3cc(-c4cc(CN5CCC5)cn5ccnc45)ccc3C2=O)C(=O)N1` (stereo not drawn) [Example 34, 3-(5-(6-(azetidin-1-ylmethyl)imidazo[1,2-a]pyridin-8-yl)-1-oxoisoindolin-2-yl) piperidine-2,6-dione], the IC50 in assay [1] was < 100 nM. In assay [2], the inhibition at 0.001 µM lay within 30 to 50%, the inhibition at 0.01 µM fell in the range of 30 to 50%, the inhibition at 0.1 µM was > 50% and the inhibition at 1 µM is > 50%. The inhibition at 10 µM in assay [2] is > 50%.

In turn, `O=C1CCC(N2Cc3cc(-c4cc(CN5CCCCC5)cn5ccnc45)ccc3C2=O)C(=O)N1` (stereo not drawn) [Example 33, 3-(1-oxo-5-(6-(piperidin-1-ylmethyl)imidazo[1,2-a]pyridin-8-yl)isoindolin-2-yl) piperidine-2,6-dione] came in with an IC50 in assay [1] of 100 to 500 nM. Also, in assay [2], the inhibition at 0.001 µM was < 30%, the inhibition at 0.01 µM is > 50%, the inhibition at 0.1 µM was > 50% and the inhibition at 1 µM was > 50%. Moreover, the inhibition at 10 µM in assay [2] was > 50%.

Regarding `Cc1ccccc1CCNCc1cc(-c2ccc3c(c2)CN(C2CCC(=O)NC2=O)C3=O)c2nccn2c1` (stereo not drawn) [Example 42, 3-(5-(6-(((2-methylphenethyl)amino)methyl)imidazo[1,2-a]pyridin-8-yl)-1-oxoisoindolin-2-yl) piperidine-2,6-dione], in assay [1], the IC50 is < 100 nM. Moreover, in assay [2], the inhibition at 0.001 µM was < 30%, the inhibition at 0.01 µM is < 30%, the inhibition at 0.1 µM is < 30% and the inhibition at 1 µM is < 30%. Besides, the inhibition at 10 µM in assay [2] lay in the range of 30 to 50%.

Take `O=C1CCC(N2Cc3cc(-c4cc(CNCCc5ccccc5Cl)cc5cncn45)ccc3C2=O)C(=O)N1` (stereo not drawn) [Example 21, 3-(5-(7-(((2-chlorophenethyl)amino)methyl)imidazo[1,5-a]pyridin-5-yl)-1-oxoisoindolin-2-yl) piperidine-2,6-dione]: the IC50 in assay [1] fell in the range of 100 to 500 nM. Besides, in assay [2], the inhibition at 0.001 µM is 30 to 50%, the inhibition at 0.01 µM was > 50%, the inhibition at 0.1 µM is > 50% and the inhibition at 1 µM was > 50%. Further, the inhibition at 10 µM in assay [2] is > 50%.

In the case of `O=C1CCC(N2Cc3cc(-c4cc(CN5CCC(c6ccccc6)CC5)cn5ccnc45)ccc3C2=O)C(=O)N1` (stereo not drawn) [Example 47, 3-(1-oxo-5-(6-((4-phenylpiperidin-1-yl)methyl)imidazo[1,2-a]pyridin-8-yl)isoindolin-2-yl) piperidine-2,6-dione], the IC50 in assay [1] was < 100 nM. Besides, in assay [2], the inhibition at 0.001 µM lay in the range of 30 to 50%, the inhibition at 0.01 µM was in the range of 30 to 50%, the inhibition at 0.1 µM was < 30% and the inhibition at 1 µM was < 30%. Also, in assay [2], the inhibition at 10 µM is < 30%.

By IC50 is commonly meant the concentration at which inhibition is half-maximal. The low end stands for greater potency in that assay, the high end for weaker potency in that assay.
